Reference: article PMC6332320, “Factors Influencing Oral Bioavailability of Thai Mango Seed Kernel Extract and Its Key Phenolic Principles” (Molecules, 2015)
Several values for one entry are separate records, joined by “and”; a condition that tells them apart may be missing. Equal entries are not always repeated. Where two headings read alike, the source gives them in different places. Blank lines part the entries; values can stand above or below the compound they belong to.

Columns and labels:
[1] = human, in vivo, po; cited from earlier work
[2] = rats, i.p., mixture of MG and PGG 20 mg/kg each, cited from earlier work
[3] = In vivo oral pharmacokinetic study in SD rats; parameters: species or system Sprague-Dawley rats; conditions: for MRT last / half-life / k el / Cmax / Tmax / AUC(0-t): Sprague-Dawley, rat, blood, po; for k el: read-out: Ke (converted); for AUC(0-t): read-out: AUC0–24h
Experimental: SD rats (five rats/group) were individually housed in stainless-steel metabolic cages, which allowed for the separation and collection of urine and feces. The rats were fasted overnight with ad libitum access to water prior to the day of the experiment. After a rat was anesthetized with isoflurane gas, the prepared suspension of test compound in an oral suspension vehicle was administered to the animals via oral gavage at a dose of 20 mg/kg for each compound in the mixture of MG and PGG or at 143 mg/kg MSKE, which is equivalent to approximate doses of 20 mg/kg PGG and 0.13 mg/kg MG. Subsequently, the rats’ tails were snipped near the tip to collect blood samples (approximately 50 µL), which were collected in heparinized tubes at 0, 0.50, 1, 2, 4, 6, 8 and 24 h. To investigate the excretion of phenolic compounds, urine and feces were collected between 0–24 h post-administration into tubes containing penicillin G (200 mg) and dry tubes, respectively, which were pre-weighted before use. After completing the pharmacokinetic study, the urine volume and dry feces weights were recorded, and all samples were stored at −80 °C until analysis.
The blood and urine samples were prepared according to our previously reported methods. The fecal samples were prepared by adding 30 mL methanol to the sample, and the mixture was then vortexed and sonicated for 30 min to obtain the fecal lysates, which were extracted via the same method.
The pharmacokinetic parameters of MG and PGG were calculated based on the non-compartmental method using WinNonlin 3.3 (Pharsight Corporation, Mountain View, CA, USA). The total mass of analytes was calculated according to the following equations (Equations (3)–(6)): The mass recovery (%) = (total mass in blood + total mass in urine + total mass in feces)/initial mass of analyte (3) Total mass in blood = C24h in blood × rat blood volume (70 mL/kg of body weight) (4) Total mass in urine = C0–24h in urine × volume of urine (0–24 h) (5) Total mass in feces = C0–24h in fecal lysate × volume of fecal lysate (30 mL) (6) where C24h in the blood is the concentration of analyte found in the blood sample at 24 h, and C0–24h in the urine and C0–24h in the fecal lysate are the concentrations of the analyte found in the urine and fecal samples, respectively, between 0 and 24 h.
A Waters UPLC system coupled with an ESI triple quadrupole mass spectrometer (QTRAP5500, AB Sciex, Foster City, CA, USA) was used to analyze MG and PGG in biological samples. The LC–MS/MS conditions were previously published. The UPLC conditions were Kinetex C18 column at 50 mm × 2.1 mm I.D. and 5 µm particle size (Phenomenex Inc.); mobile phase A at 0.1% formic acid in deionized water; mobile phase B at 100% acetonitrile; gradient at 0.0–0.5 min (0% B), 0.5–1.0 min (0%–30% B), 1.0–2.0 min (30%–90% B), 2.0–3.0 min (90% B), 3.0–3.5 min (90%–0% B) and 3.5–5.0 min (0% B); flow rate at 0.5 mL/min; column temperature at 40 °C; sample temperature at 20 °C; and injection volume at 10 µL. The mass spectrometer employed an MRM method in the negative ion mode. The instrument-dependent parameters for obtaining the mass spectra were set as follows: ionspray voltage at −4.5 kV; ion source temperature at 550 °C; gas 1 at 60 psi; gas 2 at 60 psi; and curtain gas at 20 psi. The unit mass resolution was set in both mass-resolving quadruples Q1 and Q3. Because of the absence of authentic standard for the glucuronide and sulfate metabolites of MG and PGG, qualification of the metabolites in the biological samples was accomplished using the compound-dependent parameters for MG and PGG.

[4] = MSKE 143 mg/kg (20 mg/kg PGG and 0.13 mg/kg MG)
[5] = mixture of MG and PGG 20 mg/kg each
[6] = mixture 20 mg/kg, p.o. vs i.p. (ref 14)
[7] = p.o., MSKE 143 mg/kg (20 mg/kg PGG and 0.13 mg/kg MG)
[8] = p.o., mixture of MG and PGG 20 mg/kg each

Structure (SMILES): O=C(O)c1cc(O)c(O)c(O)c1 [GA, Gallic acid]
t1/2 [1]: ~1 h

MRT last [3, 4]: 11.1 ± 0.6 h
half-life [3, 4]: 65.2 ± 49.4 h
k el [3, 4]: 4.17e-06 s⁻¹
MRT last [3, 5]: 8.69 ± 1.57 h
half-life [3, 5]: 24.8 ± 15.7 h
k el [3, 5]: 1e-05 s⁻¹
Cmax [3, 4]: 0.24 ± 0.06 µM
Tmax [3, 4]: 0.5 h
AUC(0-t) [3, 4]: 3.57 ± 0.79 µM·h
Cmax [3, 5]: 1.13 ± 1.06 µM
Tmax [3, 5]: 2.3 ± 1.64 h
AUC(0-t) [3, 5]: 6.47 ± 0.75 µM·h
AUC0–24h, oral lower than intraperitoneal [3, 6]: ~17 folds
Cmax, oral lower than intraperitoneal [3, 6]: ~31 folds
Tmax, oral compared with intraperitoneal (slower absorption) [3, 6]: approximately 3 folds
Vd, oral higher than intraperitoneal [3, 6]: approximately 19 folds
t1/2, oral longer than intraperitoneal [3, 6]: ~1.4 folds
CL [3, 7]: 35.2 ± 21 mL/min/kg
Vd [3, 7]: 135.39 ± 21.94 L/kg
CL [3, 8]: 5534.3 ± 1662 mL/min/kg
time of second maximum peak of blood concentration (double-peak profile) [3, 8]: 4 h
Structure (SMILES): COC(=O)c1cc(O)c(O)c(O)c1 [MG, methyl gallate]
Cmax ([2]; blood): 35 µM and 34.7 µM
Tmax ([2]; blood): 0.85 ± 0.70 h
CL [2]: 2665.2 ± 1268 mL/min/kg
Ke [2]: 0.056 ± 0.032 h⁻¹
MRTlast [2]: 8.71 ± 2.53 h
Vd [2]: 530.95 ± 247.54 L/kg
t1/2 [2]: 17.50 ± 12.25 h
